Test results from US20070025939A1, “cosmetic compositions containing hydroquinone and various sunscreen agents” (L'Oreal S.A., priority 2005, published 2007).

What was measured:
Type in all cases: physicochemical
[1] = Discoloration of hydroquinone solutions with stabilizer in various solvents after storage; conditions: hydroquinone solutions in various solvents (ethanol absolute, 40-B, 40-2, 3A), glass vials, four weeks at 45° C., FIGS. 2A-D
Description: FIGS. 2A-D are photographs of containers of various compositions, each comprising 0.1% benzophenone-4 in 100 ml of various solvents, after storage for four weeks at 45° C. In another set of experiments, solutions containing […] in various solvents (as shown below) were prepared, and then stored in glass vials for four weeks at 45° C.

[2] = Discoloration of compositions associated with oxidation of hydroquinone (general statement); conditions: compositions containing hydroquinone
[3] = Discoloration of 1% hydroquinone solutions in SDA 40-2 ethanol with 0.1% stabilizer after storage; conditions: hydroquinone 1% w/w in 200-proof ethanol SDA grade 40-2, 0.1% w/w stabilizer, glass vials, 4 weeks at 45° C., FIG. 1
Description: FIG. 1 is a photograph of containers of various compositions, each comprising 1% hydroquinone, 0.1% of various stabilizers, in a vehicle of SDA grade 40-2 ethanol. Solutions of hydroquinone (1% w/w), in 200-proof ethanol (SDA grade 40-2, which includes brucine sulfate as a denaturant) with 0.1% w/w of various compounds, namely BHT, benzophenone-3, ascorbic acid, Tinogard HS, Tinogard TT, Tinogard Q, benzophenone-4, Tinogard TT DD and ascorbyl glucoside were prepared, and then stored in glass vials for 4 weeks at 45° C. The results of the experiments are illustrated in FIG. 1.

Compound: CC1(C)C2CCC1(CS(=O)(=O)O)C(=O)/C2=C/c1ccc(/C=C2/C(=O)C3(CS(=O)(=O)O)CCC2C3(C)C)cc1 [Mexoryl SX, tetraphthalylidene dicamphor sulfonic acid]
- discoloration of the solutions [1]: substantially no discoloration
- discoloration of compositions associated with oxidation of hydroquinone [2]: inhibit or reduce discoloration

Compound: COc1cc(O)c(C(=O)c2ccccc2)cc1S(=O)(=O)O [benzophenone-4, 5-Benzoyl-4-Hydroxy-2-Methoxybenzene Sulfonic Acid]
- discoloration of the solutions [1]: substantially no discoloration
- discoloration of compositions associated with oxidation of hydroquinone [2]: inhibit or reduce discoloration
- discoloration of the solution [3]: substantially no discoloration
